Legend:
Experiment in all cases: Post-emergence application in field trials, herbicidal activity (damage scale 0 to 100%)
Type in all cases: in vivo
[1] = test system: Amaranthus palmeri (AMAPA); conditions: height 30 cm, 21 DAT, Table 1.1
Method: (§1) In the examples below, using the method of S. R. Colby (1967) “Calculating synergistic and antagonistic responses of herbicide combinations”, Weeds 15, p. 22ff., the value E, which is expected if the activity of the individual active compounds is only additive, was calculated:
(§2) [formula] • wherein • X=percent activity using active herbicide A at an application rate a; • Y=percent activity using active herbicide B (e.g. pyroxasulfone) at an application rate b; • E=expected activity (in %) by A+B at application rates a+b.
(§3) If the value found experimentally is higher than the value E calculated according to Colby, a synergistic effect is present.
(§4) On field test sites, natural weed infestation or seeded weeds were treated post-emergence of the weeds.
(§5) In the field trials, the weeds were treated as indicated below.
In the following experiments, the herbicidal activity for the individual herbicidal compositions (solo and mixture applications) was assessed at the indicated days after treatment (DAT). The assessments for the damage on undesired weeds caused by the composition was carried out using a scale from 0 to 100%, compared to the untreated control plants. Here, 0 means no damage and 100 means complete destruction of the plants. […]

Zea mays (ZEAMX) = test system: Zea mays (ZEAMX)
How it was run: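 Field sites with natural or seeded weeds were sprayed post-emergence via flat fan nozzles in 200 l/ha water plus 0.25 v/v % MSO adjuvant, solo or mixed with pyroxasulfone and other partners. Damage was scored 0–100% versus untreated plants at indicated DAT. Colby expected values were used to judge synergy.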

[2] = test system: Amaranthus viridis (AMAVI); conditions: growth stage 16-18, height 10-15 cm, 20 DAT, Table 2.1
Bidens pilosa (BIDPI) = test system: Bidens pilosa (BIDPI)
[3] = test system: Brachiaria plantaginea (BRAPL); conditions: growth stage 21-25, height 10-15 cm, 20 DAT, Table 2.1
[4] = test system: Euphorbia heterophylla (EPHHL); conditions: 21 DAT
Ipomoea triloba (IPOTR) = conditions: height 20-25 cm, 21 DAT, Table 2.2
Panicum maximum (PANMA) = conditions: height 20-25 cm, 21 DAT, Table 2.3
[5] = test system: Amaranthus cruentus (AMACR); conditions: height 20-25 cm
Method: as §1, §2, §3, §4, §5
(§6) In the following experiments, the herbicidal activity for the individual herbicidal compositions (solo and mixture applications) was assessed at the indicated days after treatment (DAT). The assessments for the damage on undesired weeds caused by the composition was carried out using a scale from 0 to 100%, compared to the untreated control plants. Here, 0 means no damage and 100 means complete destruction of the plants.
(§7) Herbicide A-1 (300 g/l) and pyroxasulfone (85% WG) were, together with addition of 0.25 l/ha Dash® MSO Max as adjuvant, formulated in water as distribution medium (water volume 200 l/ha) and sprayed with commercial flat fan nozzles.

[6] = test system: Amaranthus hybridus (AMACH); conditions: height 20-25 cm, 14 DAT, Table 3.1
Method: as §1, §2, §3, §4, §5, §6, §7

[7] = test system: Echinochloa colonum (ECHCO); conditions: height 20-25 cm, 25 DAT, Table 3.2
Method: as §1, §2, §3, §4, §5, §6, §7

Sorghum vulgare (SORVU) = conditions: height 20-25 cm, 14 DAT, Table 3.1
Method: as §1, §2, §3, §4, §5, §6, §7

[8] = 7 DAT, stage 15-16, height 27-33 cm, g ai/ha A-1 12.5, B 70, C-12 252
[9] = 7 DAT, stage 15-16, height 27-33 cm, g ai/ha A-1 18, B 70, C-12 252
[10] = 7 DAT, stage 15-16, height 27-33 cm, g ai/ha A-1 18, B 90, C-4 12.5
[11] = 7 DAT, stage 15-16, height 27-33 cm, g ai/ha A-1 18, B 90, C-12 252
[12] = 21 DAT, stage 15-16, height 27-33 cm, g ai/ha A-1 12.5, B 70, C-12 252
[13] = 21 DAT, stage 15-16, height 27-33 cm, g ai/ha A-1 18, B 70, C-12 252
[14] = 21 DAT, stage 15-16, height 27-33 cm, g ai/ha A-1 18, B 90, C-12 252
[15] = 42 DAT, stage 15-16, height 27-33 cm, g ai/ha A-1 12.5, B 70, C-12 252
[16] = 42 DAT, stage 15-16, height 27-33 cm, g ai/ha A-1 18, B 70, C-12 252
[17] = 42 DAT, stage 15-16, height 27-33 cm, g ai/ha A-1 18, B 90, C-12 252
[18] = Table 8.1, 7 DAT, stage 15-16, height 50-60 cm, g ai/ha A-1 18, B 70, C-12 1066
[19] = Table 8.1, 7 DAT, stage 15-16, height 50-60 cm, g ai/ha A-1 18, B 90, C-12 1066

## CCOC(=O)COc1ccccc1Oc1nc(-n2c(=O)cc(C(F)(F)F)n(C)c2=O)c(F)cc1Cl [A-1, ethyl 2-[2-[[3-chloro-5-fluoro-6-[3-methyl-2,6-dioxo-4-(trifluoromethyl)pyrimidin-1-yl]-2-pyridyl]oxy]phenoxy]acetate]
[1]; A-1 25 g ai/ha
  % Herbicidal activity: 85%
Zea mays (ZEAMX); [8]
  % Herbicidal activity: 40%
Zea mays (ZEAMX); [9]
  % Herbicidal activity: 40%
Zea mays (ZEAMX); [10]
  % Herbicidal activity: 55%
Zea mays (ZEAMX); [11]
  % Herbicidal activity: 40%
Zea mays (ZEAMX); [12]
  % Herbicidal activity: 25%
Zea mays (ZEAMX); [13]
  % Herbicidal activity: 30%
Zea mays (ZEAMX); [14]
  % Herbicidal activity: 30%
Zea mays (ZEAMX); [15]
  % Herbicidal activity: 15%
Zea mays (ZEAMX); [16]
  % Herbicidal activity: 20%
Zea mays (ZEAMX); [17]
  % Herbicidal activity: 20%
Zea mays (ZEAMX); [18]
  % Herbicidal activity: 85%
Zea mays (ZEAMX); [19]
  % Herbicidal activity: 85%
Zea mays (ZEAMX); ZEAMX, growth stage 15-16, height 40-60 cm, A-1 18 g ai/ha, 7 DAT, Table 4.2
  % Herbicidal activity: 85%
Zea mays (ZEAMX); ZEAMX, growth stage 15-16, height 40-60 cm, A-1 18 g ai/ha, 21 DAT, Table 4.4
  % Herbicidal activity: 80%
[2]; A-1 25 g ai/ha
  % Herbicidal activity: 71%
[2]; A-1 50 g ai/ha
  % Herbicidal activity: 83%
Bidens pilosa (BIDPI); growth stage 12-16, height 5-10 cm, A-1 25 g ai/ha, 21 DAT, Table 2.6
  % Herbicidal activity: 94%
Bidens pilosa (BIDPI); growth stage 23-25, height 10-20 cm, A-1 25 g ai/ha, 20 DAT, Table 2.1
  % Herbicidal activity: 71%
Bidens pilosa (BIDPI); growth stage 23-25, height 10-20 cm, A-1 50 g ai/ha, 20 DAT, Table 2.1
  % Herbicidal activity: 77%
Bidens pilosa (BIDPI); height 20-45 cm, A-1 50 g ai/ha, 21 DAT, Table 2.4
  % Herbicidal activity: 92%
[3]; A-1 25 g ai/ha
  % Herbicidal activity: 49%
[4]; growth stage 12-16, height 5-15 cm, A-1 25 g ai/ha, Table 2.6
  % Herbicidal activity: 97%
[4]; growth stage 12-16, height 5-15 cm, A-1 50 g ai/ha, Table 2.6
  % Herbicidal activity: 98%
[4]; height 15-35 cm, A-1 50 g ai/ha, Table 2.4
  % Herbicidal activity: 95%
[4]; height 20-25 cm, A-1 25 g ai/ha, Table 2.2
  % Herbicidal activity: 86%
Ipomoea triloba (IPOTR); A-1 25 g ai/ha
  % Herbicidal activity: 88%
Panicum maximum (PANMA); A-1 25 g ai/ha
  % Herbicidal activity: 75%
[5]; A-1 25 g ai/ha, 14 DAT, Table 3.1
  % Herbicidal activity: 88%
[5]; A-1 25 g ai/ha, 25 DAT, Table 3.2
  % Herbicidal activity: 89%
[5]; A-1 50 g ai/ha, 14 DAT, Table 3.1
  % Herbicidal activity: 91%
[5]; A-1 50 g ai/ha, 25 DAT, Table 3.2
  % Herbicidal activity: 91%
[6]; A-1 50 g ai/ha
  % Herbicidal activity: 87%
[7]; A-1 50 g ai/ha
  % Herbicidal activity: 55%
Sorghum vulgare (SORVU); A-1 50 g ai/ha
  % Herbicidal activity: 88%

## Cn1nc(C(F)(F)F)c(CS(=O)(=O)C2=NOC(C)(C)C2)c1OC(F)F [B, pyroxasulfone]
[1]; B 120 g ai/ha
  % Herbicidal activity: 2%
Zea mays (ZEAMX); [8]
  % Herbicidal activity: 0%
Zea mays (ZEAMX); [9]
  % Herbicidal activity: 0%
Zea mays (ZEAMX); [10]
  % Herbicidal activity: 0%
Zea mays (ZEAMX); [11]
  % Herbicidal activity: 0%
Zea mays (ZEAMX); [12]
  % Herbicidal activity: 0%
Zea mays (ZEAMX); [13]
  % Herbicidal activity: 0%
Zea mays (ZEAMX); [14]
  % Herbicidal activity: 0%
Zea mays (ZEAMX); [15]
  % Herbicidal activity: 0%
Zea mays (ZEAMX); [16]
  % Herbicidal activity: 0%
Zea mays (ZEAMX); [17]
  % Herbicidal activity: 0%
Zea mays (ZEAMX); [18]
  % Herbicidal activity: 5%
Zea mays (ZEAMX); [19]
  % Herbicidal activity: 5%
Zea mays (ZEAMX); ZEAMX, growth stage 15-16, height 40-60 cm, B 70 g ai/ha, 7 DAT, Table 4.2
  % Herbicidal activity: 5%
Zea mays (ZEAMX); ZEAMX, growth stage 15-16, height 40-60 cm, B 70 g ai/ha, 21 DAT, Table 4.4
  % Herbicidal activity: 3%
Zea mays (ZEAMX); ZEAMX, growth stage 15-16, height 40-60 cm, B 90 g ai/ha, 7 DAT, Table 4.2
  % Herbicidal activity: 5%
[2]; B 120 g ai/ha
  % Herbicidal activity: 0%
Bidens pilosa (BIDPI); growth stage 12-16, height 5-10 cm, B 120 g ai/ha, 21 DAT, Table 2.6
  % Herbicidal activity: 5%
Bidens pilosa (BIDPI); growth stage 23-25, height 10-20 cm, B 120 g ai/ha, 20 DAT, Table 2.1
  % Herbicidal activity: 0%
Bidens pilosa (BIDPI); height 20-45 cm, B 120 g ai/ha, 21 DAT, Table 2.4
  % Herbicidal activity: 0%
[3]; B 120 g ai/ha
  % Herbicidal activity: 0%
[4]; growth stage 12-16, height 5-15 cm, B 120 g ai/ha, Table 2.6
  % Herbicidal activity: 5%
[4]; height 15-35 cm, B 120 g ai/ha, Table 2.4
  % Herbicidal activity: 0%
[4]; height 20-25 cm, B 120 g ai/ha, Table 2.2
  % Herbicidal activity: 0%
Ipomoea triloba (IPOTR); B 120 g ai/ha
  % Herbicidal activity: 0%
Panicum maximum (PANMA); B 120 g ai/ha
  % Herbicidal activity: 0%
[5]; B 120 g ai/ha, 14 DAT, Table 3.1
  % Herbicidal activity: 13%
[5]; B 120 g ai/ha, 25 DAT, Table 3.2
  % Herbicidal activity: 16%
[6]; B 120 g ai/ha
  % Herbicidal activity: 16%
[7]; B 120 g ai/ha
  % Herbicidal activity: 12%
Sorghum vulgare (SORVU); B 120 g ai/ha
  % Herbicidal activity: 5%

## CP(=O)(O)CC[C@H](N)C(=O)O.N [C-12, glufosinate-P-ammonium]
Zea mays (ZEAMX); [8]
  % Herbicidal activity: 70%
Zea mays (ZEAMX); [9]
  % Herbicidal activity: 70%
Zea mays (ZEAMX); [11]
  % Herbicidal activity: 70%
Zea mays (ZEAMX); [12]
  % Herbicidal activity: 60%
Zea mays (ZEAMX); [13]
  % Herbicidal activity: 60%
Zea mays (ZEAMX); [14]
  % Herbicidal activity: 60%
Zea mays (ZEAMX); [15]
  % Herbicidal activity: 45%
Zea mays (ZEAMX); [16]
  % Herbicidal activity: 45%
Zea mays (ZEAMX); [17]
  % Herbicidal activity: 45%
Zea mays (ZEAMX); [18]
  % Herbicidal activity: 7%
Zea mays (ZEAMX); [19]
  % Herbicidal activity: 7%

Reference: US12690589B2, “Herbicidal compositions comprising pyroxasulfone” (BASF SE, priority 2024, dated 2026)
